Results taken from PubChem BioAssay AID624404 (Broad Institute, 2012).
Inconclusive results are not listed.

These compounds were tested on D54 LucT luciferase reporter counterscreen, luminescence, 24 h (assay: reporter signal increase, D54 LucT cells – cell-based, luminescence, cherry pick, counter-screen for N-linked glycosylation inhibitor project, dose response (AID 624404)).

Question: `COc1ccc(Nc2nc3cc(-c4sccc4C)sc3c(=O)n2C)cc1OC` was tested. Which AC35 did it give?
Answer: 0.104 µM

Question: With `O=C(c1cccs1)N1CCC(c2nc3c(nnn3Cc3cccc(Cl)c3)c(=O)[nH]2)CC1` as the compound, how does the AC35 read?
Answer: 0.174 µM

Question: Which AC35 does the source give for `CCOc1ccc(/C=C2\SC(N3CCCCC3)=NC2=O)cc1` here?
Answer: 5.57 µM

Question: For `Cn1c(=O)n(C)c2cc(NS(=O)(=O)c3ccc4c(c3)CCCC4)ccc21`, which AC35 is on record?
Answer: 0.416 µM

Question: Which AC35 does the source give for `Cc1ccc(CC(=O)NCc2ccc(F)cc2)cc1` here?
Answer: 4.27 µM

Question: With `CCn1ncc(C2=NOC(C(=O)NCc3ccc(Cl)cc3)C2)c1C` (stereo not drawn) as the compound, how does the AC35 read?
Answer: 14.7 µM

Question: With `Cc1ccc(S(=O)(=O)c2cc3c(=O)n4ccccc4nc3n(CCc3ccccc3)c2=N)cc1` as the compound, how does the AC35 read?
Answer: 0.0759 µM

Question: How did the AC35 turn out when `CC#CCN1c2ccccc2[C@]23C[C@@H](C(=O)OC)N(C(=O)c4cc(C)oc4C)C2=NC(C(=O)OC)=C(C(=O)OC)[C@H]13` was run?
Answer: 2.27 µM

Question: Which AC35 does the source give for `Cc1cc(C)n(-c2nnc3n2N=C(c2c[nH]c4ccccc24)CS3)n1` here?
Answer: 0.0285 µM

Question: `COc1ccc(N/C=C/C(=O)c2cc(OC)c(OC)c(OC)c2)cc1` was tested. Which AC35 did it give?
Answer: 0.263 µM

Question: How did the AC35 turn out when `CC1(C(=O)NCc2ccccc2)Cc2c(-c3cccc(C(N)=O)c3)ccnc2O1` (stereo not drawn) was run?
Answer: 0.651 µM

Question: Which AC35 does the source give for `CC(C)(C)c1ccc(OCc2ccc(C(=O)Nc3cccnc3)o2)cc1` here?
Answer: 0.519 µM

Question: How did the AC35 turn out when `CCOC(=O)N1CCc2cc(OC)c(OC)c3c2c1cc1cc(OC)c(OC)cc13` was run?
Answer: 1.94 µM

Question: How did the AC35 turn out when `O=C(N/N=C/c1ccc(Cl)cc1)c1sccc1OCc1ccc(F)cc1` was run?
Answer: 0.514 µM

Question: Which AC35 does the source give for `Cn1c(=O)c2cc(NC(=O)CCc3ccccc3)ccc2n1-c1ccccc1F` here?
Answer: 2.98 µM

Question: Which AC35 does the source give for `COc1ccc(Nc2cc(C)nc(-n3nc(C)cc3C)n2)cc1` here?
Answer: 0.15 µM

Question: With `C[C@]1(O)CC(=O)C=C[C@H]1Nc1ccccc1` as the compound, how does the AC35 read?
Answer: 1.97 µM

Question: `CCOC(=O)c1c(C)[nH]c(C(=O)N/N=C/c2ccc(OC)c(OC)c2)c1C` was tested. Which AC35 did it give?
Answer: 0.526 µM

Question: For `O=C(/C(=C\c1ccccc1)c1nc2ccccc2[nH]1)c1ccc(Cl)cc1`, which AC35 is on record?
Answer: 0.306 µM

Question: `O=C(Nc1ccc(S(=O)(=O)N2CCOCC2)cc1)c1cc(-c2cc(Cl)ccc2O)n[nH]1` was tested. Which AC35 did it give?
Answer: 1.37 µM

Question: With `Oc1ccc(C2=NNC(=NCc3ccc4c(c3)OCO4)SC2)c(O)c1` as the compound, how does the AC35 read?
Answer: 3.12 µM

Question: How did the AC35 turn out when `Cc1cc(=O)[nH]c2c(C)cc(S(=O)(=O)N3CCCCC3)cc12` was run?
Answer: 0.411 µM

Question: Which AC35 does the source give for `CCn1c2ccccc2c2cc(NC(=O)COC(=O)c3ccccc3F)ccc21` here?
Answer: 4.22 µM

Question: With `COc1ccc(NC(=O)c2cc3c(=O)n(C)c4ccccc4c3n2C)cc1OC` as the compound, how does the AC35 read?
Answer: 4 µM

Question: Which AC35 does the source give for `COc1ccccc1-c1cc(NC=O)c2ncc(-c3cccc(C(=O)N(C)C)c3)n2c1` here?
Answer: 0.0483 µM

Question: `Nc1nc(-c2ccccn2)nc(N)c1Cc1ccc(Cl)cc1Cl` was tested. Which AC35 did it give?
Answer: 1.48 µM

Question: With `COc1ccc2c(c1)[C@H]1[C@H](CO2)[C@H](c2ccccc2)[C@]2(C)C(=O)Nc3cc(OC)c(OC)cc3C(=O)N12` as the compound, how does the AC35 read?
Answer: 0.0202 µM

Question: With `COc1ccc(Nc2nc(N(C)c3ccccc3)nc(N)c2[N+](=O)[O-])cc1` as the compound, how does the AC35 read?
Answer: 0.171 µM

Question: With `CCn1c2ccccc2c2cc(/C=N/NC(=O)c3ccc(O)cc3)ccc21` as the compound, how does the AC35 read?
Answer: 4.49 µM

Question: Which AC35 does the source give for `CCCCNC(=O)c1cc(-c2ccc(F)cc2)on1` here?
Answer: 0.806 µM

Question: With `CCOc1ccc2cc(/C=C/C(=O)c3ccco3)c(Cl)nc2c1` as the compound, how does the AC35 read?
Answer: 4.14 µM

Question: `CCc1nn2c(NCCCO)cc(C)nc2c1-c1ccc(F)cc1` was tested. Which AC35 did it give?
Answer: 0.184 µM

Question: Which AC35 does the source give for `COc1ccc(C(=O)CSc2nnc(-c3cc4ccccc4cc3O)n2Cc2ccco2)cc1` here?
Answer: 1.8 µM

Question: Which AC35 does the source give for `Cc1noc(C)c1-c1ccc(C(=O)NCc2cccnc2)c2occc12` here?
Answer: 0.297 µM

Question: `COc1ccccc1C(=O)Nc1ccc2c(c1)nc(CCNC(=O)c1ccco1)n2C` was tested. Which AC35 did it give?
Answer: 0.0453 µM

Question: With `COc1cccc(C(NC(C)=O)c2nc(-c3ccccc3OC)cs2)c1` (stereo not drawn) as the compound, how does the AC35 read?
Answer: 0.0933 µM

Question: How did the AC35 turn out when `CN(Cc1ccccc1)c1nc2c(c(=O)[nH]c(=O)n2C)n1CCCc1ccccc1` was run?
Answer: 0.909 µM

Question: How did the AC35 turn out when `Nc1[nH]nc2nc(NCc3ccccc3)c3c(c12)CCN(Cc1ccccc1)C3` was run?
Answer: 2.84 µM

Question: For `CCCCC[C@H](O)/C=C/[C@@H]1[C@@H](C/C=C\CCCC(=O)OC)[C@@H](O)C[C@H]1O`, which AC35 is on record?
Answer: < 0.0012 µM

Question: For `CC(=O)Nc1ccc(NC(=O)c2ccc(-c3c(C)noc3C)c3ccoc23)cc1`, which AC35 is on record?
Answer: 5.69 µM

Question: `CCOc1nc(N=C(N)N)nc2c(C)cccc12` was tested. Which AC35 did it give?
Answer: 0.603 µM

Question: How did the AC35 turn out when `O=C(C[C@H]1C/C=C\C[C@H](Cc2ccc(F)cc2)C(=O)O[C@@H](c2ccccc2)CNC1=O)N[C@@H](CO)Cc1ccccc1` was run?
Answer: 0.575 µM

Question: `COc1ccccc1NC(=O)c1ccc(-c2ccc(Br)cc2)o1` was tested. Which AC35 did it give?
Answer: 0.466 µM

Question: For `O=C(NCCN1C(=O)S/C(=C\c2ccccc2F)C1=O)C1=COCCO1`, which AC35 is on record?
Answer: 0.214 µM

Question: Which AC35 does the source give for `O=C(N/N=C\c1cn(-c2ccccc2)nc1-c1ccccc1)c1ccc(Br)o1` here?
Answer: 0.957 µM

Question: With `c1ccc(CNc2ncnc3c2cnn3-c2ccccc2)cc1` as the compound, how does the AC35 read?
Answer: 0.719 µM

Question: For `Cc1nc(N=C(N)N)nc2c(C)cccc12`, which AC35 is on record?
Answer: 3.82 µM

Question: With `Cc1cc(C(=O)N/N=C/c2c3ccccc3cc3ccccc23)n[nH]1` as the compound, how does the AC35 read?
Answer: 0.643 µM

Question: With `C/C(=N\NC(=O)c1c(Cl)c(C)nn1C)c1ccc(NC(=O)C2CCC2)cc1` as the compound, how does the AC35 read?
Answer: 0.475 µM

Question: For `COc1ccc(C(=O)N2CCN(S(=O)(=O)c3ccc(C)cc3C)CC2)cc1S(=O)(=O)N1CCOCC1`, which AC35 is on record?
Answer: 4.79 µM

Question: For `O=C(NCCCN1CCOCC1)c1cc(-c2cccs2)on1`, which AC35 is on record?
Answer: 3.63 µM

Question: With `O=C1OCC2=C1C(c1ccc3c(c1)OCO3)c1cc3c(cc1O2)OCO3` (stereo not drawn) as the compound, how does the AC35 read?
Answer: 0.352 µM

Question: `COc1ccc(-n2c(=S)[nH]c3cc(C(=O)Nc4ccc(C)c(F)c4)ccc3c2=O)c(OC)c1` was tested. Which AC35 did it give?
Answer: 0.245 µM

Question: For `COc1cc2cnc(-c3ccccc3)cc2cc1OC`, which AC35 is on record?
Answer: 2.54 µM

Question: How did the AC35 turn out when `COc1ccc(/C=C/C(=O)c2c(O)cc(OC)cc2OC)cc1` was run?
Answer: 3.21 µM

Question: How did the AC35 turn out when `COc1cc(C(=O)N/N=C(\C)c2ccc3c(c2)OCO3)cc(OC)c1OC` was run?
Answer: 0.0924 µM

Question: For `CCOc1cc(-c2c(C#N)c(N)nc3c2CCc2ccccc2-3)ccc1O`, which AC35 is on record?
Answer: 3.85 µM

Question: How did the AC35 turn out when `COc1ccc(OC)c(N(CC(=O)Nc2cccc3ccccc23)S(C)(=O)=O)c1` was run?
Answer: 2.42 µM

Question: With `Cc1nn(-c2ccccc2)c2c1CC(=O)Nc1ccccc1-2` as the compound, how does the AC35 read?
Answer: 3.16 µM

Question: Which AC35 does the source give for `COc1cc(F)ccc1-c1csc(C(NC(C)=O)c2cccc(F)c2)n1` (stereo not drawn) here?
Answer: 0.0931 µM

Question: How did the AC35 turn out when `CCN(CC)c1ccc(/C=N/NC(=O)c2cnccn2)cc1` was run?
Answer: 0.0537 µM

Question: `COc1cc(C#Cc2ccc3cc(CCCO)oc(=O)c3c2)cc(OC)c1` was tested. Which AC35 did it give?
Answer: 0.0628 µM

Question: For `CCOC(=O)c1[nH]c(C)c(C(=O)Nc2cc(OC)ccc2OC)c1C`, which AC35 is on record?
Answer: 0.345 µM

Question: How did the AC35 turn out when `CCc1ccc(OCC(=O)Nc2ccncc2)c(Br)c1` was run?
Answer: 0.598 µM

Question: How did the AC35 turn out when `Cc1ccc(NC(=O)c2ccc(Cl)cc2[N+](=O)[O-])nc1` was run?
Answer: 2.42 µM

Question: `O=C1N[C@H]2CC=C[C@H]2N(Cc2cccs2)c2ccccc21` was tested. Which AC35 did it give?
Answer: 0.199 µM

Question: Which AC35 does the source give for `COc1ccc(S(=O)(=O)NCc2ccccn2)cc1NC(=O)c1ccccc1` here?
Answer: 0.834 µM

Question: With `O=C1c2ccccc2C(=O)N1Cc1cnc(N2CCN(c3ccccc3)CC2)s1` as the compound, how does the AC35 read?
Answer: 2.89 µM

Question: For `Cc1nc(Nc2nc(-c3ccccc3)cc(=O)[nH]2)nc2ccccc12`, which AC35 is on record?
Answer: 4.91 µM

Question: With `NS(=O)(=O)c1ccc(NC(=O)c2cccc3cc4ccccc4nc23)cc1` as the compound, how does the AC35 read?
Answer: 6.58 µM

Question: `CNC(=O)c1cccn(Cc2ccc(C(F)(F)F)cc2)c1=O` was tested. Which AC35 did it give?
Answer: 1.24 µM

Question: For `CSCCOC(=O)c1[nH]c2c(c1C)C(=O)CC(c1ccco1)C2` (stereo not drawn), which AC35 is on record?
Answer: 0.627 µM

Question: For `COc1ccc2[nH]c(C(=O)N3CCN(Cc4ccccc4)CC3)cc2c1OC`, which AC35 is on record?
Answer: 2.98 µM

Question: Which AC35 does the source give for `O=S(=O)([N-]c1nc2ccccc2nc1-n1cc[n+](Cc2ccccc2)c1)c1ccc(Cl)cc1` here?
Answer: 0.0898 µM

Question: `CC1CN(C(=O)c2cc(-c3ccncc3)nc3ccccc23)CC(C)O1` (stereo not drawn) was tested. Which AC35 did it give?
Answer: 1.72 µM

Question: Which AC35 does the source give for `COc1cccc(N2CCN(C(=O)c3[nH]c(C)c(C(C)=O)c3C)CC2)c1` here?
Answer: 4.89 µM

Question: With `COc1cc(NC(C(=O)Nc2cccc(C(C)=O)c2)c2ccccc2)cc(OC)c1OC` (stereo not drawn) as the compound, how does the AC35 read?
Answer: 0.00556 µM

Question: With `CC(C)Oc1ccc(C(=O)Nc2ccc3c(c2)n(C)c(=O)n3C)cc1` as the compound, how does the AC35 read?
Answer: 5.52 µM
